Test results as given in patent US20200246347A1, “Substituted Pyrrolopyridine-Derivatives” (BAYER PHARMA AKTIENGESELLSCHAFT, priority 2017, published 2020).
pIC50: −log10 of the molar value.

What was measured:
pSer376-SLP-76 = assay: Phosphorylation assay in human cell line (Jurkat E6.1 overexpressing FLAG-tagged SLP-76, a-CD3 stimulated); assay type: cell-based; details: 30 min at 37° C., Jurkat E6.1 cells; for % amount of pSer376-SLP-76 @ 10 μM: 10 μM compound; for % amount of pSer376-SLP-76 @ 20 μM: 20 μM compound
Procedure: Phosphorylation assays were carried out in Jurkat E6.1 cells from American Type Culture Collection (ATCC) stably overexpressing human FLAG-tagged SLP-76 (proprietary). […] Applied compounds were tested at either fixed concentration of 10 μmol/L and 20 μmol/L or in a 8 point dose response titration of increase compound concentration with 10 nmol/L. 50 nmol/L. 100 nmol/L. 500 nmol/L. 1 μmol/L. 5 μmol/L. 10 μmol/L and 20 μmol/L in triplicates. The cells were washed once in phosphate-buffered saline (pH 7.4). Cells were lysed using a lysis buffer containing 50 mmol/L Tris-Cl (pH 7.5). 150 mM NaCl. 2 mM EDTA. 1% Triton-X 100. 0.5% Na-DOC. 0.1% SDS. […] Probe antibodies used were a rabbit monoclonal antibody supernatant raised against human phospho-Ser376-SLP-76 peptide (proprietary) and for mormalization an a-alpha-Tubulin. mouse monoclonal antibody (Sigma #T9026). […] Cells with a-CD3 treatment only were used as negative control (min control. which represent the minimally possible inhibition of pSer376-SLP-76 by a test compound)
AUC values of each respective test sample were normalized using the AUC of housekeeping gene alpha-Tubulin and AUC of pSer376-SLP-76 of the min control. The percentage of the amount of pSer-SLP-76 in the treatment samples was calculated using the max control and min control values of the respective Peggy Sue™ run.

MAP4K1 = MAP4K1 (Homo sapiens, UniProt Q92918); assay: biochemical
Chain of MAP4K1 (Q92918 whole entry): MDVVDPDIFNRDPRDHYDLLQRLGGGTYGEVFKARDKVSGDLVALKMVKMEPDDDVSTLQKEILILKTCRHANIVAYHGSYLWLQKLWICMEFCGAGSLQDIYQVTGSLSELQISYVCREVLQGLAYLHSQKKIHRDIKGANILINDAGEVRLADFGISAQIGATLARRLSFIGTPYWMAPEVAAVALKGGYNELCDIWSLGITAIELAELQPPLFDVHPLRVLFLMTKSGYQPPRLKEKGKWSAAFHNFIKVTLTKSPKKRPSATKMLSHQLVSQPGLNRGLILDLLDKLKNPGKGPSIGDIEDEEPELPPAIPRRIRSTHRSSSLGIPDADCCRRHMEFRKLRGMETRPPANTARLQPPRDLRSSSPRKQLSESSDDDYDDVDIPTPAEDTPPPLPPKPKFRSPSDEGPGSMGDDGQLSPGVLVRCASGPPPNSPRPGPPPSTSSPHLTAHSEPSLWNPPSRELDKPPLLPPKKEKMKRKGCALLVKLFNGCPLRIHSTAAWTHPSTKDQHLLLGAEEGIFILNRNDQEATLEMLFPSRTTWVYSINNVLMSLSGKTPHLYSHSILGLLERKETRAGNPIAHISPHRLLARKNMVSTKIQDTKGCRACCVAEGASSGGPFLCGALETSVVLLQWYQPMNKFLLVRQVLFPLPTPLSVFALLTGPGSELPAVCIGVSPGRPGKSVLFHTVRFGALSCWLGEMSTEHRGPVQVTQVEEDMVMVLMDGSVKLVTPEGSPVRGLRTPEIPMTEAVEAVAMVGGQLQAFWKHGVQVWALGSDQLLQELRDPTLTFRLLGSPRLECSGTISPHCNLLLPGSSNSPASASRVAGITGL

| SMILES | % amount of pSer376-SLP-76 @ 10 μM (pSer376-SLP-76) [%] | % amount of pSer376-SLP-76 @ 20 μM (pSer376-SLP-76) [%] | pIC50 (MAP4K1) |
| --- | --- | --- | --- |
| O=C(NCCN1CCOCC1)Nc1ccc(Oc2ccnc3[nH]cc(C(F)(F)F)c23)cc1 [Example 1, 1-[2-(morpholin-4-yl)ethyl]-3-(4-{[3-(trifluoromethyl)-1H-pyrrolo[2,3-b]pyridin-4-yl]oxy}phenyl)urea] | 40.8 | 16.0 |  |
| Cc1cc(NC(=O)NCCCN2CCOCC2)ccc1Oc1ccnc2[nH]cc(C(F)(F)F)c12 [Example 4, 1-(3-methyl-4-{[3-(trifluoromethyl)-1H-pyrrolo[2,3-b]pyridin-4-yl]oxy}phenyl)-3-[3-(morpholin-4-yl)propyl]urea] | 45.6 | 18.1 | 7.13 |
| Cc1cc(NC(=O)NCCN2CCOCC2)ccc1Oc1ccnc2[nH]cc(C(F)(F)F)c12 [Example 5, 1-(3-methyl-4-{[3-(trifluoromethyl)-1H-pyrrolo[2,3-b]pyridin-4-yl]oxy}phenyl)-3-[2-(morpholin-4-yl)ethyl]urea] | 48.1 | 25.3 |  |
| N#Cc1cc(NC(=O)NCCN2CCOCC2)ccc1Oc1ccnc2[nH]cc(C(F)(F)F)c12 [Example 6, 1-(3-cyano-4-{[3-(trifluoromethyl)-1H-pyrrolo[2,3-b]pyridin-4-yl]oxy}phenyl)-3-[2-(morpholin-4-yl)ethyl]urea] |  |  | 6.67 |
| N#Cc1cc(NC(=O)NCCCN2CCOCC2)ccc1Oc1ccnc2[nH]cc(C(F)(F)F)c12 [Example 7, 1-(3-cyano-4-{[3-(trifluoromethyl)-1H-pyrrolo[2,3-b]pyridin-4-yl]oxy}phenyl)-3-[3-(morpholin-4-yl)propyl]urea] |  |  | 6.86 |
